Literature values as cited in publication PMC4460250, “Systems Pharmacology Dissecting Holistic Medicine for Treatment of Complex Diseases: An Example Using Cardiocerebrovascular Diseases Treated by TCM” (Evidence-based Complementary and Alternative Medicine : eCAM, 2015).
Where two headings read alike, the source gives them in different places.

Conditions: cited from earlier work
[1] = human, PreHIA data set, value given as fraction

Row | SMILES | HIA(Human Intestinal Absorption) (in vivo) | HIA(Human Intestinal Absorption) [1]
1 | C#C[C@]1(O)CC[C@H]2[C@@H]3CCc4cc(O)ccc4[C@H]3CC[C@@]21C [Ethynylestradiol] | 1 | –
2 | CC(O)(P(=O)(O)O)P(=O)(O)O [Etidronate] | 0.05 | –
3 | COc1cc([C@@H]2c3cc4c(cc3[C@@H](O[C@@H]3O[C@@H]5CO[C@@H](C)O[C@H]5[C@H](O)[C@H]3O)[C@H]3COC(=O)[C@H]23)OCO4)cc(OC)c1O [Etoposide] | 0.5 | –
4 | Cc1ccc(-c2ncc(Cl)cc2-c2ccc(S(C)(=O)=O)cc2)cn1 [Etoricoxib] | 1 | –
5 | CC(=O)OCC(CCn1cnc2cnc(N)nc21)COC(C)=O [Famciclovir] | 0.77 | –
6 | NC(N)=Nc1nc(CSCCC(N)=NS(N)(=O)=O)cs1 [Famotidine] | 0.28 | –
7 | O=C(O)Cc1ccccc1Oc1ccc(Cl)cc1Cl [Fenclofenac] | 1 | –
8 | CC(C)(C)NC(=O)[C@H]1CC[C@H]2[C@@H]3CC[C@H]4NC(=O)C=C[C@]4(C)[C@H]3CC[C@]12C [Finasteride] | 1 | –
9 | Cc1onc(-c2c(F)cccc2Cl)c1C(=O)N[C@@H]1C(=O)N2[C@@H]1SC(C)(C)[C@@H]2C(=O)O [Floxacillin] | 0.8 | –
10 | Nc1nc(=O)[nH]cc1F [Flucytosine] | 1 | –
11 | CC(=O)OCC(=O)[C@@]1(O)CC[C@H]2[C@@H]3CCC4=CC(=O)CC[C@]4(C)[C@@]3(F)[C@@H](O)C[C@@]21C [Fludrocortisone_acetate] | 0.95 | –
12 | CCOC(=O)c1ncn2c1CN(C)C(=O)c1cc(F)ccc1-2 [Flumazenil] | 0.95 | –
13 | CC1(C)O[C@@H]2C[C@H]3[C@@H]4C[C@H](F)C5=CC(=O)C=C[C@]5(C)[C@H]4[C@@H](O)C[C@]3(C)[C@]2(C(=O)CO)O1 [Flunisolide] | 0.8 | –
14 | O=C1OC2(c3ccc(O)cc3Oc3cc(O)ccc32)c2ccccc21 [Fluorescein] | 0.99 | –
15 | CNCCC(Oc1ccc(C(F)(F)F)cc1)c1ccccc1 (stereo not drawn) [Fluoxetine] | 0.8 | –
16 | CC(C)C(=O)Nc1ccc([N+](=O)[O-])c(C(F)(F)F)c1 [Flutamide] | 0.9 | –
17 | O=C(O)P(=O)(O)O [Foscarnet] | 0.17 | –
18 | C[C@@H]1O[C@@H]1P(=O)(O)O [Fosfomycin] | 0.31 | –
19 | Nc1nc(O)c2ncn(COC(CO)CO)c2n1 [Ganciclovir] | 0.038 | –
20 | Cc1ccc(C)c(OCCCC(C)(C)C(=O)O)c1 [Gemfibrozil] | 1 | –
21 | C#C[C@]1(O)C=C[C@H]2[C@@H]3CCC4=CC(=O)CC[C@@H]4[C@H]3CC[C@@]21CC [Gestodene] | 1 | –

Row | SMILES | HIA(Human Intestinal Absorption) (in vivo) | HIA(Human Intestinal Absorption) [1]
22 | Cc1ccc(S(=O)(=O)NC(=O)N[C@H]2[C@H]3CC[C@@](C)([C@H]2O)C3(C)C)cc1 [Glibornuride] | 0.98 | –
23 | Cc1ccc(S(=O)(=O)NC(=O)NN2CC3CCCC3C2)cc1 (stereo not drawn) [Gliclazide] | 0.65 | –
24 | CCC1=C(C)CN(C(=O)NCCc2ccc(S(=O)(=O)NC(=O)N[C@H]3CC[C@H](C)CC3)cc2)C1=O [Glimepiride] | 1 | –
25 | COc1ccc2c(c1)C(=O)N(CCc1ccc(S(=O)(=O)NC(=O)NC3CCCCC3)cc1)C(=O)C2(C)C [Gliquidone] | 0.95 | –
26 | COc1ccc(Cl)cc1C(=O)NCCc1ccc(S(=O)(=O)NC(=O)NC2CCCCC2)cc1 [Glyburide] | 1 | –
27 | CN1C2CCCC1CC(NC(=O)c1nn(C)c3ccccc13)C2 (stereo not drawn) [Granisetron] | 1 | –
28 | N=C(N)N/N=C/c1c(Cl)cccc1Cl [Guanabenz] | 0.8 | –
29 | NNc1nncc2ccccc12 [Hydralazine] | 1 | –
30 | CCCCCC(=O)O[C@]1(C(C)=O)CC[C@H]2[C@@H]3CCC4=CC(=O)CC[C@]4(C)[C@H]3CC[C@@]21C [Hydroxyprogesterone_caproate] | 0.9 | –
31 | Cc1ccc(NC(=O)c2ccc(CN3CCN(C)CC3)cc2)cc1Nc1nccc(-c2cccnc2)n1 [Imatinib] | 0.98 | –
32 | C[C@@H](O)[C@H]1C(=O)N2C(C(=O)O)=C(SCCN=CN)C[C@H]12 [Imipenem] | 0.05 | –
33 | CN(C)CCCN1c2ccccc2CCc2ccccc21 [Imipramine] | 1 | –
34 | CC(C(=O)O)c1ccc(N2Cc3ccccc3C2=O)cc1 (stereo not drawn) [Indoprofen] | 1 | –
35 | CC(=O)N(CC(O)CO)c1c(I)c(C(=O)NCC(O)CO)c(I)c(C(=O)NCC(O)CO)c1I (stereo not drawn) [Iohexol] | 0.05 | –
36 | CCCCC1=NC2(CCCC2)C(=O)N1Cc1ccc(-c2ccccc2-c2nnn[nH]2)cc1 [Irbesartan] | 1 | –
37 | NNC(=O)c1ccncc1 [Isoniazid] | 0.8 | –
38 | CC1=C(/C=C/C(C)=C/C=C/C(C)=C\C(=O)O)C(C)(C)CCC1 [Isotretinoin] | 0.9 | –
39 | O=C(O)Cc1ccc2c(c1)C(=O)c1ccccc1CO2 [Isoxepac] | 0.98 | –
40 | Cc1cc(NC(=O)C2=C(O)c3ccccc3S(=O)(=O)N2C)no1 [Isoxicam] | 1 | –
41 | CC(CCc1ccccc1)NCC(O)c1ccc(O)c(C(N)=O)c1 (stereo not drawn) [Labetalol] | 0.95 | –
42 | Nc1nnc(-c2cccc(Cl)c2Cl)c(N)n1 [Lamotrigine] | 0.98 | –

Row | SMILES | HIA(Human Intestinal Absorption) (in vivo) | HIA(Human Intestinal Absorption) [1]
43 | Cc1c(OCC(F)(F)F)ccnc1C[S+]([O-])c1nc2ccccc2[nH]1 (stereo not drawn) [Lansoprazole] | 0.85 | –
44 | N#Cc1ccc(C(c2ccc(C#N)cc2)n2cncn2)cc1 [Letrozole] | 1 | –
45 | c1ccc([C@H]2CN3CCSC3=N2)cc1 [Levamisole] | 0.95 | –
46 | CC(C)(C)NC[C@H](O)COc1cccc2c1CCCC2=O [Levobunolol] | 1 | –
47 | N[C@@H](Cc1ccc(O)c(O)c1)C(=O)O [Levodopa] | – | 0.86
48 | CCC[C@@H]1C[C@@H](C(=O)N[C@@H]([C@H]2O[C@H](SC)[C@H](O)[C@@H](O)[C@H]2O)[C@@H](C)O)N(C)C1 [Lincomycin] | 0.28 | –
49 | CCCCc1nc(Cl)c(CO)n1Cc1ccc(-c2ccccc2-c2nn[nH]n2)cc1 [Losartan] | 0.8 | –
50 | OC[C@@H](O)[C@@H](O)[C@H](O)[C@H](O)CO [Mannitol] | 0.16 | –
51 | CNCCCC12CCC(c3ccccc31)c1ccccc12 [Maprotiline] | 0.98 | –
52 | COC(=O)Nc1nc2ccc(C(=O)c3ccccc3)cc2[nH]1 [Mebendazole] | 1 | –
53 | Cc1cccc(Nc2ccccc2C(=O)O)c1C [Mefenamic_acid] | 0.9 | –
54 | Cc1cnc(NC(=O)C2=C(O)c3ccccc3S(=O)(=O)N2C)s1 [Meloxicam] | 0.9 | –
55 | C#C[C@]1(O)CC[C@H]2[C@@H]3CCc4cc(OC)ccc4[C@H]3CC[C@@]21C [Mestranol] | 0.9 | –
56 | CN(C)C(=N)N=C(N)N [Metformin] | 0.53 | –
57 | Cn1cc[nH]c1=S [Methimazole] | 0.95 | –
58 | C[C@](N)(Cc1ccc(O)c(O)c1)C(=O)O [Methyldopa] | 0.41 | –
59 | CC[C@@H](CO)NC(=O)[C@@H]1C=C2c3cccc4[nH]cc(c34)C[C@H]2N(C)C1 [Methylergonovine] | 1 | –
60 | C[C@H]1C[C@@H]2[C@H]([C@@H](O)C[C@@]3(C)[C@H]2CC[C@]3(O)C(=O)CO)[C@@]2(C)C=CC(=O)C=C12 [Methylprednisolone] | 0.82 | –
61 | CC(C)(C(=O)c1cccnc1)c1cccnc1 [Metyrapone] | 0.8 | –
62 | CC1(C)S[C@@H]2[C@H](NC(=O)[C@H](NC(=O)N3CCN(S(C)(=O)=O)C3=O)c3ccccc3)C(=O)N2[C@H]1C(=O)O [Mezlocillin] | 0.01 | –
63 | CN1CCN2c3ccccc3Cc3ccccc3C2C1 (stereo not drawn) [Mianserin] | 0.7 | –

Row | SMILES | HIA(Human Intestinal Absorption) (in vivo) | HIA(Human Intestinal Absorption) [1]
64 | COCC(=O)O[C@]1(CCN(C)CCCc2nc3ccccc3[nH]2)CCc2cc(F)ccc2[C@@H]1C(C)C [Mibefradil] | 0.69 | –
65 | CC#C[C@]1(O)CC[C@H]2[C@@H]3CCC4=CC(=O)CCC4=C3[C@@H](c3ccc(N(C)C)cc3)C[C@@]21C [Mifepristone] | – | 0.9
66 | Cc1[nH]c(=O)c(C#N)cc1-c1ccncc1 [Milrinone] | 0.83 | –
67 | O=C(NCCN1CCOCC1)c1ccc(Cl)cc1 [Moclobemide] | 0.88 | –
68 | CCOC(=O)Nc1ccc2c(c1)N(C(=O)CCN1CCOCC1)c1ccccc1S2 [Moricizine] | 0.88 | –
69 | COc1nc(C)nc(Cl)c1N=C1NCCN1 [Moxonidine] | 0.88 | –
70 | CC(C)(C)NCC(O)COc1cccc2c1CC(O)C(O)C2 (stereo not drawn) [Nadolol] | 0.57 | –
71 | O=C1CC[C@@]2(O)[C@H]3Cc4ccc(O)c5c4[C@@]2(CCN3CC2CC2)[C@H]1O5 [Naltrexone] | 0.95 | –
72 | CCc1nn(CCCN2CCN(c3cccc(Cl)c3)CC2)c(=O)n1CCOc1ccccc1 [Nefazodone] | 1 | –
73 | CC#Cc1cn([C@@H]2O[C@H](CO)[C@@H](O)[C@@H]2O)c(=O)[nH]c1=O [Netivudine] | 0.28 | –
74 | O=C(NCCO[N+](=O)[O-])c1cccnc1 [Nicorandil] | 1 | –
75 | O=C(O)c1cccnc1 [Nicotinic_acid] | 0.88 | –
76 | CC1(C)NC(=O)N(c2ccc([N+](=O)[O-])c(C(F)(F)F)c2)C1=O [Nilutamide] | 1 | –
77 | O=C1CN(/N=C/c2ccc([N+](=O)[O-])o2)C(=O)N1 [Nitrofurantoin] | 0.95 | –
78 | CNC(=C[N+](=O)[O-])NCCSCc1csc(CN(C)C)n1 [Nizatidine] | 0.9 | –
79 | CNCCC=C1c2ccccc2CCc2ccccc21 [Nortriptyline] | 1 | –
80 | O=C(O)c1cc(/N=N/c2ccc(O)c(C(=O)O)c2)ccc1O [Olsalazine] | 0.24 | –
81 | COc1ccc2[nH]c([S+]([O-])Cc3ncc(C)c(OC)c3C)nc2c1 (stereo not drawn) [Omeprazole] | 0.8 | –
